Experimental data published in patent US20050090397A1, “Herbicides made from substituted aryl ketones” (priority 2001, published 2005).

Columns and labels:
Type in all cases: in vivo
Lindernia pyxidari = assay: Greenhouse test in transplanted paddy rice: herbicidal damage to weed; conditions: applied to water surface, rated 3 weeks after application vs untreated control
Source text: (§1) To produce a preparation of active compound, 1 part by weight of an active compound combination according to the invention is mixed with the stated amount of solvent and, after addition of the stated amount of the emulsifier, diluted with water to the desired concentration.
(§2) Vessels for planting (500 cm^2) are filled with soil from a rice field, and in each case 3 rice plants (cultivar: Nipponbare, 2-3-leaf stage, height: about 15 cm) are planted into the middle of vessels for planting. Into the same vessels for planting, seeds are sown. The soil in the vessels is kept moist. After two days, each vessel for planting is flooded to a water depth of 2-3 cm.
(§3) Five days after the rice plants were transplanted, the amount of active compound is, in the preparation described above, applied to the surface of the water in the vessels for planting using a pipette. The water depth in the vessels for planting is maintained at 2-3 cm.
(§4) 3 weeks after the application of active compound, the efficacy is rated in % damage in comparison to the untreated control.
(§5) Active compounds, application rates and results are shown in Table A1 below, the abbreviations used in the table having the following meanings: • (I-65) N-[2,6-dichloro-3-[2,6-dioxocyclohexyl)-carbonyl]-phenyl]pyrrolidone-1-carboxamide • (I-2) N′-[2,6-dichloro-3-[(2,6-dioxo-cyclohexyl)-carbonyl]-phenyl]-N-methoxy-N-methyl-urea • (A) fentrazamide

[1] = system: rice plants (cultivar: Nipponbare); assay: Greenhouse test in transplanted paddy rice: crop damage; conditions: rated 3 weeks after application
Source text: as §1, §2, §3, §4, §5

ROT/N = assay: Herbicidal damage to weed ROT/N (Tables B1, B3); conditions: application rate 50 g/ha
DOPJU = assay: Herbicidal damage to weed DOPJU (Table B2); conditions: application rate 50 g/ha
Source text: as §1, §2, §3, §4, §5

CCN(C(=O)n1nnn(-c2ccccc2Cl)c1=O)C1CCCCC1 [(A), 4-(2-chloro-phenyl)-N-cyclohexyl-N-ethyl-4,5-dihydro-5-oxo-1H-tetrazol-1-carboxamide]
Damage to Lindernia pyxidari (%) (Lindernia pyxidari; application rate 150 g/ha): 70%
Damage to rice (%) ([1]; application rate 150 g/ha): 0%
Damage (to ROT/N) (%) (ROT/N; Table B1): 60%
Damage (to DOPJU) (%) (DOPJU): 50%

CCC1(CC2(c3cccc(Cl)c3)CO2)C(=O)c2ccccc2C1=O (stereo not shown) [B, 2-[2-(3-chloro-phenyl)-oxiranyl-methyl]-2-ethyl-1H-indene-1,3 (2H)-dione]
Damage (to ROT/N) (%) (ROT/N; Table B3): 2%

CON(C)C(=O)Nc1c(Cl)ccc(C(=O)C2C(=O)CCCC2=O)c1Cl [Example I-2, N′-[2,6-dichloro-3-[(2,6-dioxo-cyclohexyl)-carbonyl]-phenyl]-N-methoxy-N-methyl-urea]
Damage to Lindernia pyxidari (%) (Lindernia pyxidari; application rate 200 g/ha): 60%
Damage to rice (%) ([1]; application rate 200 g/ha): 0%
